Source: PubChem BioAssay AID1963845 (Molecular Pharmacology Branch, DTP, NCI, 2024)

Test system: 429239-143-T-J1-PDC complex spheroid viability
Assay: Anticancer human tumor 429239-143-T-J1-PDC patient-derived small cell lung carcinoma cell line growth inhibition [POLQ]
Details: for IC50: curve of first compound; for viability, T/C: stronger effect = lower value
Experimental: Multicellular complex tumor spheroid response to Polymerase (POL) inhibitors (novobiocin, ART-558, RP6685) in combination with a variety of drugs and investigational agents in selected tumor cell lines
The POL inhibitors (novobiocin, ART-558, and RP6685) were evaluated both individually and in combination with standard of care and investigational anticancer small molecules within a complex spheroid model of solid tumors. . Complex spheroids include a stromal component modeled by human endothelial cells (HUVEC) and fibroblasts modeled by human mesenchymal stem cells (MSCs). The concentration ranges selected for each drug and investigational agent were based upon clinically achievable concentrations if the clinical Cmax of the agent was known.
Compounds. The drugs and investigational agents: novobiocin (NSC847541), ART-558 (NSC835418), RP-6685 (NSC848927), peposertib (NSC802822), ceralasertib (NSC780249), elimusertib (NSC800525), camonsertib (NSC841442), AZD-1390 (NSC803789), olaparib (NSC753686), talazoparib (NSC767125), rucaparib (NSC756644), sotorasib (NSC818433), MRTX-1133 (NSC836407), SN-38 (NSC673596), topotecan (NSC609699), epotoside (NSC141540), doxorubicin (NSC123127), gemcitabine (NSC613327), 5-fluorouracil (NSC19893), paclitaxel (NSC125973), vemurafenib (NSC761431), MSA-2 (NSC828583), SN-011 (NSC837082), adavosertib (NSC754352), prexasertib (NSC758257), carboplatin (NSC241240) and oxaliplatin (NSC266046), were obtained from the National Cancer Institute (NCI) Developmental Therapeutics Program Chemical Repository (21). The FDA-approved anticancer drug set is available from the Developmental Therapeutics Program at https://dtp.cancer.gov/organization/dscb/obtaining/. […] The stock solutions were prepared in dimethyl sulfoxide (DMSO, Sigma-Aldrich, St. Louis, MO, cat. D2650), except for the platinum compounds which were prepared in saline (Quality Biological, Gaithersburg, MD, cat. 114-055-101), at 800-fold the tested concentration and stored at -70 degrees C prior to their use. All drugs and investigational agents were tested over a range starting from a high concentration at or near the clinical Cmax and decreasing in half-log increments. If the clinical Cmax for an agent had not been determined, the highest concentration tested was 10 microM, except for SN-38, which was tested at a high concentration of 1 microM.
Cell Culture. All cells were maintained in an incubator at 37 degrees C and 5% CO2 with 95% humidity. The PDC lines were cultured according to standard operating procedures established by the NCI PDMR (https://pdmr.cancer.gov). Table 3 of the manuscript, lists the cell lines along with the number of the three cell types plated to form the mct-spheroids and media for tumor cell growth. After thawing, all PDC lines, except 997537-175-T-J1-PDC and 415267-285-R-J2-PDC, were cultured in Matrigel-coated flasks prepared with a working solution of 1X Ham's F-12 nutrient mix, without supplementation (Thermo Fisher Scientific, cat. 11765054), 100 U/mL penicillin-streptomycin (Thermo Fisher Scientific, cat. 15140122), and 2.5% Matrigel (Corning Inc., Corning, NY, cat. 354248) for the first three passages. The two PDC lines 997537-175-T-J1-PDC and 415267-285-R-J2-PDC were cultured on uncoated flasks. The 857933-349-R-J2-PDC line was cultured in 6C/Colon 1B media containing advanced DMEM/F-12 (Thermo Fisher Scientific, cat. 12634028), 10 mM HEPES (Thermo Fisher Scientific, cat. 15630080), 1X GlutaMAX supplement (Thermo Fisher Scientific, cat. 35050061), 0.1 mg/mL primocin (InvivoGen, San Diego, CA, cat. ant-pm-2), 10% defined fetal bovine serum, heat inactivated (HyClone Laboratories Inc., Logan, UT, cat. SH30070.03HI), 50% L-WRN conditioned media (ATCC, cat. CRL-3276), 1.25 mM N-Acetyl-L-cysteine (Sigma-Aldrich, cat. A9165), 10 mM nicotinamide (Sigma-Aldrich, cat. N0636), 1X B-27 supplement (Thermo Fisher Scientific, cat. 17504044), 1X N-2 supplement (Thermo Fisher Scientific, cat. […]

[1] = second compound 0.0316 µM, first compound 0.0316 µM
[2] = second compound 0.0316 µM, first compound 0.1 µM
[3] = second compound 0.1 µM, first compound 0.0316 µM
[4] = second compound 0.1 µM, first compound 0.1 µM
[5] = second compound 0.316 µM, first compound 0.0316 µM
[6] = second compound 0.316 µM, first compound 0.1 µM
[7] = second compound 1 µM, first compound 0.0316 µM
[8] = second compound 1 µM, first compound 0.1 µM
[9] = second compound 3.16 µM, first compound 0.0316 µM
[10] = second compound 3.16 µM, first compound 0.1 µM
[11] = second compound 10 µM, first compound 0.0316 µM
[12] = second compound 10 µM, first compound 0.1 µM
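Note: luminescence signal used as surrogate measure of viable cells; spheroids exposed to compounds for seven days before readout.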
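Throughout, for viability, T/C: 100% = DMSO vehicle control viability as luminescence relative to vehicle.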

Work on CC1COCCN1c1cc(C2(S(C)(=N)=O)CC2)nc(-c2ccnc3[nH]ccc23)n1 (centres undefined) + Cc1cccc(N(C)C(=O)C2C(O)CCN2c2nc(C)cc(C(F)(F)F)c2C#N)c1 yielded an IC50 (second compound 0.0316 µM) of 2210 nM, an IC50 (second compound 0.1 µM) of 2100 nM and an IC50 (second compound 0.316 µM) of 2020 nM. For the same compound, the IC50 (second compound 1 µM) was 2100 nM, the IC50 (second compound 3.16 µM) was 2320 nM and the IC50 (second compound 10 µM) was 2410 nM. It also gave a viability, T/C [1] of 108%, a viability, T/C [2] of 105% and a viability, T/C (second compound 0.0316 µM, first compound 0.316 µM) of 92.9%. The viability, T/C (second compound 0.0316 µM, first compound 1 µM) was 77.3%, the viability, T/C (second compound 0.0316 µM, first compound 3.16 µM) was 37.2% and the viability, T/C (second compound 0.0316 µM, first compound 10 µM) was 15.9%. It also gave a viability, T/C [3] of 105%, a viability, T/C [4] of 106% and a viability, T/C (second compound 0.1 µM, first compound 0.316 µM) of 96.7%. The viability, T/C (second compound 0.1 µM, first compound 1 µM) was 72.9%, the viability, T/C (second compound 0.1 µM, first compound 3.16 µM) was 37.6% and the viability, T/C (second compound 0.1 µM, first compound 10 µM) was 16%. The viability, T/C [5] was 101%, the viability, T/C [6] was 99.6% and the viability, T/C (second compound 0.316 µM, first compound 0.316 µM) was 97.2%. For the same compound, the viability, T/C (second compound 0.316 µM, first compound 1 µM) was 73.6%, the viability, T/C (second compound 0.316 µM, first compound 3.16 µM) was 34.9% and the viability, T/C (second compound 0.316 µM, first compound 10 µM) was 17.3%. The viability, T/C [7] was 91.2%, the viability, T/C [8] was 98.9% and the viability, T/C (second compound 1 µM, first compound 0.316 µM) was 89.7%. It also gave a viability, T/C (second compound 1 µM, first compound 1 µM) of 75.7%, a viability, T/C (second compound 1 µM, first compound 3.16 µM) of 35.8% and a viability, T/C (second compound 1 µM, first compound 10 µM) of 17.7%. The viability, T/C [9] was 96.9%, the viability, T/C [10] was 97.6% and the viability, T/C (second compound 3.16 µM, first compound 0.316 µM) was 94.5%. For the same compound, the viability, T/C (second compound 3.16 µM, first compound 1 µM) was 71.3%, the viability, T/C (second compound 3.16 µM, first compound 3.16 µM) was 42.6% and the viability, T/C (second compound 3.16 µM, first compound 10 µM) was 18.3%. The viability, T/C [11] was 105%, the viability, T/C [12] was 103% and the viability, T/C (second compound 10 µM, first compound 0.316 µM) was 98.4%. For the same compound, the viability, T/C (second compound 10 µM, first compound 1 µM) was 60.2%, the viability, T/C (second compound 10 µM, first compound 3.16 µM) was 50.3% and the viability, T/C (second compound 10 µM, first compound 10 µM) was 17.8%.
With Cn1ncnc1[C@H]1c2n[nH]c(=O)c3cc(F)cc(c23)N[C@@H]1c1ccc(F)cc1 + Cc1cccc(N(C)C(=O)C2C(O)CCN2c2nc(C)cc(C(F)(F)F)c2C#N)c1 the IC50 (second compound 0.0316 µM) was 19.8 nM, the IC50 (second compound 0.1 µM) was 19 nM and the IC50 (second compound 0.316 µM) was 24.6 nM. The IC50 (second compound 1 µM) was 19.3 nM, the IC50 (second compound 3.16 µM) was 27 nM and the IC50 (second compound 10 µM) was 11.5 nM. The viability, T/C (second compound 0.0316 µM, first compound 0.000316 µM) was 107%, the viability, T/C (second compound 0.0316 µM, first compound 0.001 µM) was 107% and the viability, T/C (second compound 0.0316 µM, first compound 0.00316 µM) was 88.4%. It also gave a viability, T/C (second compound 0.0316 µM, first compound 0.01 µM) of 62.4%, a viability, T/C [1] of 42.7% and a viability, T/C [2] of 29.6%. For the same compound, the viability, T/C (second compound 0.1 µM, first compound 0.000316 µM) was 87.6%, the viability, T/C (second compound 0.1 µM, first compound 0.001 µM) was 98.4% and the viability, T/C (second compound 0.1 µM, first compound 0.00316 µM) was 78.1%. It also gave a viability, T/C (second compound 0.1 µM, first compound 0.01 µM) of 65.9%, a viability, T/C [3] of 34.7% and a viability, T/C [4] of 39.8%. For the same compound, the viability, T/C (second compound 0.316 µM, first compound 0.000316 µM) was 93.5%, the viability, T/C (second compound 0.316 µM, first compound 0.001 µM) was 86.2% and the viability, T/C (second compound 0.316 µM, first compound 0.00316 µM) was 73.3%. The viability, T/C (second compound 0.316 µM, first compound 0.01 µM) was 65.7%, the viability, T/C [5] was 44.7% and the viability, T/C [6] was 29.2%. It also gave a viability, T/C (second compound 1 µM, first compound 0.000316 µM) of 97.1%, a viability, T/C (second compound 1 µM, first compound 0.001 µM) of 98.7% and a viability, T/C (second compound 1 µM, first compound 0.00316 µM) of 74.6%. For the same compound, the viability, T/C (second compound 1 µM, first compound 0.01 µM) was 57.8%, the viability, T/C [7] was 47.1% and the viability, T/C [8] was 31.8%. For the same compound, the viability, T/C (second compound 3.16 µM, first compound 0.000316 µM) was 95.8%, the viability, T/C (second compound 3.16 µM, first compound 0.001 µM) was 83% and the viability, T/C (second compound 3.16 µM, first compound 0.00316 µM) was 84.4%. The viability, T/C (second compound 3.16 µM, first compound 0.01 µM) was 60.5%, the viability, T/C [9] was 49.1% and the viability, T/C [10] was 30.2%. The viability, T/C (second compound 10 µM, first compound 0.000316 µM) was 91.8%, the viability, T/C (second compound 10 µM, first compound 0.001 µM) was 86.1% and the viability, T/C (second compound 10 µM, first compound 0.00316 µM) was 98.5%. For the same compound, the viability, T/C (second compound 10 µM, first compound 0.01 µM) was 51.8%, the viability, T/C [11] was 41.2% and the viability, T/C [12] was 32%.
